Assay results: patent US4594340A, “25,26-dehydro-1α,24R-dihydroxycholecalciferol and 25,26-dehydro-1α,24S-dihydroxycholecalciferol and the epimeric mixture” (Hoffmann-La Roche Inc., priority 1984, dated 1986)

Legend:
HL-60 cells [1] = experiment: Differentiation of HL-60 cells by nitroblue tetrazolium (NBT) reduction; assay type: cell-based, human (patient)
Protocol: (§1) Cultures of HL-60 cells were established in the absence (control) or presence of various concentrations of the test compound. […] Proliferation was assessed by directly enumerating the increased number of tumor cells resulting from incubation. Viability was determined by dye exclusion technique to learn whether any of the compounds were lethal to cultured HL-60 cells. Cellular differentiation was evaluated by determining the number of cells which had acquired the enzymes necessary to support a respiratory burst and the functional ability to phagocytose (bind/internalize) particulate material from their environment; both activities being characteristic of mature macrophages and granulocytes,
(§2) Experimental compounds were dissolved in sufficient ethanol to yield stock solutions of 1×10^-2 molar. Reduced lighting was employed when working with compounds and stock solutions were stored in the dark at -20° in an argon atmosphere. Compounds were diluted with tissue culture medium and added to flasks containing HL-60 cells to achieve the final concentrations described in each experiment.
(§3) The promyelocytic (HL-60) tumor cell line was derived from a patient with acute promyelocytic leukemia. HL-60 cells were maintained in liquid culture by serial weekly passage in tissue culture medium. In any experiment, three replicate flasks were incubated without compound (control) or in the presence of varying concentrations of compound. […]
Quantitation of differentiated cells was done by the biochemical method of nitroblue tetrazolium (NBT) reduction. Sufficient cells were pooled from replicate cultures, centrifuged at 220×g, washed once with serum-free tissue culture medium, and resuspended to 1×10^6 cells per ml in Ca^++ --Mg^++ -deficient phosphate buffered saline (prepared by supplementing Ca^++ --Mg^++ -free phosphate buffered saline (PBS) to 10% v/v with heat-inactivated fetal bovine serum). Nitroblue tetrazolium was dissolved at 1 mg per ml in Ca^++ --Mg^++ -deficient PBS with gentle heating and mixing. Tetradecanoyl phorbol acetate (TPA) was dissolved at 1 mg per ml in ethanol and stored at -20° C. Just prior to use, a working solution of TPA was prepared by diluting the stock concentration 100-fold with Ca^++ --Mg^++ -deficient PBS. The test was done in 12×75 mm tubes by adding 0.5 ml Ca^++ --Mg^++ -deficient PBS, 1.0 ml of HL-60 cells, 0.5 ml of NBT solution, and 0.02 ml of the working TPA solution. After mixing, the tubes were incubated in a 37° water bath for 25 minutes then transferred to ice. Undifferentiated and differentiated cells present in any sample were determined microscopically by surveying 200-400 cells per sample or by cytofluorograph by surveying greater than 30,000 cells. Cells without pigmented granules (clear cells) were judged to be undifferentiated while those containing greater than 3 blue-black formazan granules were scored as differentiated. […] Results are expressed as the percentage of differentiated cells present in any sample as calculated according to the formula: [formula]

HL-60 cells [2] = experiment: Differentiation of HL-60 cells by phagocytosis; assay type: cell-based, human (patient)
Protocol: as §1
Tissure culture medium used in these experiments was RPM1-1640 supplemented prior to use to 10% v/v with fetal bovine serum (heat inactivated at 56° for 30 minutes), to 130 units per ml with penicillin and 130 μg per ml with streptomycin, and to an additional 1.6 millimolar with L-glutamine.
as §2, §3
Quantitation of differentiated HL-60 cells on a functional basis was done by enumerating the number of cells in any sample which had acquired the ability to phagocytose (bind/internalize) particulate material from their environment, a characteristic of mature macrophages and granulocytes. Sufficient cells were pooled from replicate cultures, centrifuged at 200×g, washed once with serum-free tissue culture medium, and resuspended to 1×10^6 cells per ml in serum-free tissue culture medium. To a 1.0 ml sample in 12×75 mm tubes was added 0.1 ml of a 1:10 dilution from stock of fluorescent microspheres obtained as a gift from Dr. William Dreyer at the California Institute of Technology. Latex beads, yeast cells or red blood cells may also be used in place of fluorescent microsphere in this step. Cells and particle were mixed, incubated for 15 minutes in a 37° water bath, collected in a transfer pipet, and overlayed onto a 5 ml cushion of fetal bovine serum in a 15 ml conical culture tube. After centrifugation at 150×g for 8 minutes, the excess particulate (upper layer) was discarded as was the remainder of the serum cushion leaving only a cell pellet and cell-associated particulate. The resultant pellets were resuspended in 1.0 ml of tissue culture medium containing 10% fetal bovine serum, transferred to a hemacytometer, and evaluated microscopically using both ultraviolet and visible light sources. Undifferentiated and differentiated cells present in any sample were determined microscopically by surveying 200-400 cells per sample. Non-fluorescent cells, identified only by visible light, were judged to be undifferentiated. Generally, differentiated cells were intensely fluorescent clearly indicating extensive phagocytosis of particulate material. Results are expressed as the percentage of differentiated cells present in any sample as calculated according to the formula: [formula]

[3] = Antirachitogenic increase in tibia ash in chicks on vitamin D-deficient diet; assay type: in vivo, chick (White Leghorn cockerels)
Protocol: **Oneday-old White Leghorn cockerels were placed on a vitamin Ddeficient
diet which contained 1% calcium and 0.7% phosphorus and were housed under
ultravioletfree lighting (General Electric F40G0 gold fluorescent lights)
The test compound was dissolved in propylene glycol and administered
orally in a volume of 0.2 ml/day for 21 consecutive days. Controls were
treated with vehicle alone. Chicks were autopsied on the day after the […]

- EC50 (HL-60 cells [1]; Homo sapiens, 96 h, HL-60 cells, NBT test, read-out: HL-60 Test Differentiation NBT Test ED50): 30 nM
- potential for hypercalcemia ([3]; than for 1α,25-dihydroxycholecalciferol, as indicated by increase in tibia ash weight in chicks): much less
Structure (SMILES): C=C(C)[C@H](O)CC[C@@H](C)[C@H]1CC[C@H]2/C(=C/C=C3/C[C@@H](O)C[C@H](O)C3=C)CCC[C@]12C [25,26-dehydro-1α,24R-dihydroxycholecalciferol]
- diff. cells / total (NBT reduction) (HL-60 cells [1]; 45 × 10^-9 molar, day 3): 14932/30509
- % diff. (NBT reduction) (HL-60 cells [1]; 45 × 10^-9 molar, day 4): 60%
- diff. cells / total (NBT reduction) (HL-60 cells [1]; 45 × 10^-9 molar, day 4): 20003/33311
- % diff. (NBT reduction) (HL-60 cells [1]; 45 × 10^-9 molar, day 6): 63%
- diff. cells / total (NBT reduction) (HL-60 cells [1]; 45 × 10^-9 molar, day 6): 22787/36263
- % diff. (NBT reduction) (HL-60 cells [1]; 90 × 10^-9 molar, day 3): 62%
- diff. cells / total (NBT reduction) (HL-60 cells [1]; 90 × 10^-9 molar, day 3): 29458/47866
- % diff. (NBT reduction) (HL-60 cells [1]; 90 × 10^-9 molar, day 4): 73%
- diff. cells / total (NBT reduction) (HL-60 cells [1]; 90 × 10^-9 molar, day 4): 30230/41142
- % diff. (NBT reduction) (HL-60 cells [1]; 90 × 10^-9 molar, day 6): 79%
- diff. cells / total (NBT reduction) (HL-60 cells [1]; 90 × 10^-9 molar, day 6): 35708/45388
- induction of cellular differentiation (HL-60 cells [1]; compared with 1α,25-dihydroxycholecalciferol): induced cellular differentiation in a dose dependent fashion
- potency relative to 1α,25-dihydroxycholecalciferol (cellular differentiation) (HL-60 cells [1]; of that of 1α,25-dihydroxycholecalciferol): 40%
- % diff. (Phagocytosis) (HL-60 cells [2]; 5 × 10^-9 molar, day 3): 7%
- diff. cells / total (Phagocytosis) (HL-60 cells [2]; 5 × 10^-9 molar, day 3): 24/329
- % diff. (Phagocytosis) (HL-60 cells [2]; 5 × 10^-9 molar, day 4): 10%
- diff. cells / total (Phagocytosis) (HL-60 cells [2]; 5 × 10^-9 molar, day 4): 22/223
- % diff. (Phagocytosis) (HL-60 cells [2]; 5 × 10^-9 molar, day 6): 16%
- diff. cells / total (Phagocytosis) (HL-60 cells [2]; 5 × 10^-9 molar, day 6): 45/290
- % diff. (Phagocytosis) (HL-60 cells [2]; 15 × 10^-9 molar, day 3): 24%
- diff. cells / total (Phagocytosis) (HL-60 cells [2]; 15 × 10^-9 molar, day 3): 76/324
- % diff. (Phagocytosis) (HL-60 cells [2]; 15 × 10^-9 molar, day 4): 29%
- diff. cells / total (Phagocytosis) (HL-60 cells [2]; 15 × 10^-9 molar, day 4): 96/332
- % diff. (Phagocytosis) (HL-60 cells [2]; 15 × 10^-9 molar, day 6): 25%
- diff. cells / total (Phagocytosis) (HL-60 cells [2]; 15 × 10^-9 molar, day 6): 83/333
- % diff. (Phagocytosis) (HL-60 cells [2]; 45 × 10^-9 molar, day 3): 53%
- diff. cells / total (Phagocytosis) (HL-60 cells [2]; 45 × 10^-9 molar, day 3): 174/329
- % diff. (Phagocytosis) (HL-60 cells [2]; 45 × 10^-9 molar, day 4): 70%
- diff. cells / total (Phagocytosis) (HL-60 cells [2]; 45 × 10^-9 molar, day 4): 206/296
- % diff. (Phagocytosis) (HL-60 cells [2]; 45 × 10^-9 molar, day 6): 79%
- diff. cells / total (Phagocytosis) (HL-60 cells [2]; 45 × 10^-9 molar, day 6): 176/223
- % diff. (Phagocytosis) (HL-60 cells [2]; 90 × 10^-9 molar, day 3): 69%
- diff. cells / total (Phagocytosis) (HL-60 cells [2]; 90 × 10^-9 molar, day 3): 181/261
- % diff. (Phagocytosis) (HL-60 cells [2]; 90 × 10^-9 molar, day 4): 86%
- diff. cells / total (Phagocytosis) (HL-60 cells [2]; 90 × 10^-9 molar, day 4): 219/255
- % diff. (Phagocytosis) (HL-60 cells [2]; 90 × 10^-9 molar, day 6): 96%
- diff. cells / total (Phagocytosis) (HL-60 cells [2]; 90 × 10^-9 molar, day 6): 200/218
- cells capable of phagocytosis (HL-60 cells [2]; compared with control cultures): dose-related increase in the proportion of cells capable of phagocytosis
- Antirachitogenic Increase in Tibia Ash in Chicks ([3]; 300 ng, orally, 21 consecutive days): 20%
